Measured values published in US6355428B1, “Nucleic acid ligand interaction assays” (Genelabs Technologies, Inc., priority 1998, dated 2002).

Tests used:
[1] = test system: F/Q indicator duplex of SEQ ID NO: 75 and SEQ ID NO: 76; assay: Kinetic strand displacement assay (fluorescence quenching); assay type: binding
From the text: This version of the assay is based on the displacement of a shorter strand within an indicator duplex by a longer strand. […] Again, a duplex of first and second sequences, as described above, is used, but in this assay, the strands differ in length, thus creating a single stranded overhang region. In a fluorescence quenching assay format, for example, the “F” strand is generally longer than the “Q” strand. In most cases, a minimum overhang region of about 4-20 nucleotides is effective to initiate strand displacement. Because a longer region will increase the rate of displacement, and it is generally desirable in the assay to reduce the rate of displacement, so as to facilitate measurement, this length of 4-20 nucleotides is generally preferred. A length of 5-7 nucleotides is particularly preferred.
The first and second strands are allowed to form a duplex in the absence of the ligand. In the present example, the “F” and “Q” groups are thus in proximity, giving a minimum level (when Q is a quenching group) of fluorescence. The displacing strand is added, and the rate of displacement, as indicated by an increase (or other change) in fluorescence over time, is observed (see FIG. 2). The experiment is then repeated in the presence of increasing amounts of ligand. A strongly binding ligand will stabilize the initial duplex and thus slow the rate of displacement. It is also expected that a ligand binding closer to the overhang site will also have a greater effect on inhibiting displacement.
The displacing strand, having SEQ ID NO: 77 (Table VI), is added, and the increase in fluorescence is observed over time. […] About 0.08 μM drug was effective to detectably slow the rate of displacement, and at 1.25-2.5 μM, the increase at 2 hrs was reduced to about 40%.
A mixture was formed of 60 nM of a fluorescein labeled 28-nucleotide strand having SEQ ID NO: 75 (Table VI) and 90 nM of a Dabcyl™-labeled 21-nucleotide quenching strand (SEQ ID NO: 76) in a buffer containing 20 mM HEPES, pH 7.5, 0.1 mM EDTA, and 30 mM NaCl. The control experiment contained no added drug; for subsequent experiment, increasing amounts of netropsin were added. To start the displacement reaction, the displacing strand (SEQ ID NO: 77) was added at concentrations of 35 nM to 60 nM. The fluorescence of the system was then monitored every 5 minutes for 90 to 120 minutes.
The initial rate of the displacement reaction was calculated from plots of fluorescence vs. time as the slope of the fluorescence curve from 0 to 60 minutes.
Additional experiments were carried out in which specific, unlabeled DNA competitor duplexes, whose sequences are shown in Table VII, were added to the assay mixture.

[2] = test system: indicator oligo SEQ ID NO: 12 (mixed sequence) versus unlabeled competitor dsDNA; assay: ECL competitive assay with 12-base duplex competitor oligos; assay type: binding; conditions: competitor having only one A/T base pair; 0.008 to 8.33 μM competitor
Method: Three 12-base duplex competitor oligos, containing 1-, 5-, and 8-base stretches of A/T's flanked by G/C sequences, were tested as competitors, using distamycin as the binding ligand and SEQ ID NO: 12 (mixed sequence) as the indicator oligo. The indicator pair was labeled with a 5′ ruthenium chelate on one strand and a 3′biotin on the complementary strand, as described above and in Example 14.
Distamycin was premixed at […] with 0.25 nM indicator oligo. The assay was conducted as described in Example 14, using the Igen Origen® apparatus. Ligand binding, which stabilizes the duplexed form of the indicator DNA, results in an increase in the ECL signal. Unlabeled competitor dsDNA (no ruthenium or biotin label) was then added at concentrations ranging from 0.008 to 8.33 μM, and the decrease in the signal was monitored, as shown in FIG. 13.
An indicator pair of oligonucleotides, having the sequence SEQ ID NO: 12 and complement, were labeled with a 5′ ruthenium (bipy) chelate on one strand, as described in U.S. Pat. No. 5,635,347 and references cited therein, and with a 3′ biotin on the complementary strand. […] The biotinylated strand of DNA was captured on the bead surface, and any ruthenium captured by the streptavidin via drug-stabilized hybridization of the indicator duplex was quantified with the IGEN Origen™ analyzer. […]

| Compound | effect of unlabeled competitor duplex on rate of displacement in presence of drug (FIG. 16) ([1]; A/T rich competitor duplex SEQ ID NO: 78) | increase in fluorescence at 2 hrs ([1]; at 1.25-2.5 μM netropsin, about 175% in absence of drug) | drug concentration effective to detectably slow the rate of displacement (FIG. 14) ([1]; displacing strand SEQ ID NO: 77) | drug concentration giving notable decrease in initial rate of displacement (FIG. 15) ([1]; initial rate = slope 0 to 60 minutes) | competition by competitor oligonucleotide (FIG. 13) [2] |
| --- | --- | --- | --- | --- | --- |
| Cn1cc(NC(=O)c2cc(NC(=O)CN=C(N)N)cn2C)cc1C(=O)NCCC(=N)N [Netropsin, netropsin] | rate of displacement is increased by increasing amounts of the A/T rich competitor duplex | about 40% | About 0.08 μM | about 0.08 μM | – |
| Cn1cc(NC(=O)c2cc(NC(=O)c3cc(NC=O)cn3C)cn2C)cc1C(=O)NCCC(=N)N [Distamycin, distamycin] | – | – | – | – | little competition was observed |
